Laboratory results published in patent US6569878B1, “Substituted 4-amino-thiazol-2-yl compounds as cyclin-dependent kinase inhibitors” (Agouron Pharmaceuticals Inc., priority 1997, dated 2003).

Tests used:
[1] = molecular target: T1, human CDK1 (cdc2) and cyclin B (Homo sapiens, UniProt P06493); assay: Inhibition of CDK1(cdc2)/cyclin B histone H1 kinase activity; format: biochemical; settings: read-out: Ki CDK 1/B
T1 construct: purchased New England Biolabs (Beverly Mass.)
Outline: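 CDK1/cyclin B (commercial, or CDK1/GST-cyclin B1 from co-infected insect cells) phosphorylated histone H1 with 25 μM [32/33P]ATP at pH 7.4, 30° C for 20 min, 2% DMSO. Product captured on phosphocellulose and read by phosphorimager; apparent Ki from competitive or tight-binding fits, with Km for ATP determined.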

U2-OS = assay: Inhibition of cell growth, MTT assay, U2-OS; format: cell-based; settings: Homo sapiens, U2OS
Outline: (§1)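 Cells rested 4 h after plating, then exposed to graded compound concentrations in 0.5% (v/v) DMSO for four to six days (cell-type dependent) at 37° C, 5% CO2. Viability was read by MTT (0.2 mg/mL final, 4 h at 37° C), with DMSO-solubilized formazan measured at 540 nm.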

Saos-2 = assay: Inhibition of cell growth, MTT assay, Saos-2; format: cell-based; settings: Homo sapiens; Saos-2, MTT assay
Outline: as §1

[2] = molecular target: T2, complex of human CDK4 and genetically truncated (1-264) cyclin D3 (Homo sapiens, UniProt P11802); assay: Inhibition of CDK4/cyclin D retinoblastoma kinase activity (D-type cyclin is truncated D3); format: biochemical; settings: superscript c: D-type cyclin is truncated D3; read-out: Ki CDK 4/D
T2 construct: made in house; host or cells: insect cells, co-infected with baculovirus
T2 sequence (P11802 whole entry, the tested form may be a part): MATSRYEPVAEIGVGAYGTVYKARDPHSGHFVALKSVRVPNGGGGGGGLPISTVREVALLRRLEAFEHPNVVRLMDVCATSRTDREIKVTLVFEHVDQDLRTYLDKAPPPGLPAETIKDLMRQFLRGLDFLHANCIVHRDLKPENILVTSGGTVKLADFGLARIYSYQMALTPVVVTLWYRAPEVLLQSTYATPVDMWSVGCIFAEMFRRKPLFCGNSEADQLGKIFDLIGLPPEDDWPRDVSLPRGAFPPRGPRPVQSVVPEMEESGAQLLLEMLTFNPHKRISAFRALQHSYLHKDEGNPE
T2 sequence (P30281 1-264 partner limits assumed): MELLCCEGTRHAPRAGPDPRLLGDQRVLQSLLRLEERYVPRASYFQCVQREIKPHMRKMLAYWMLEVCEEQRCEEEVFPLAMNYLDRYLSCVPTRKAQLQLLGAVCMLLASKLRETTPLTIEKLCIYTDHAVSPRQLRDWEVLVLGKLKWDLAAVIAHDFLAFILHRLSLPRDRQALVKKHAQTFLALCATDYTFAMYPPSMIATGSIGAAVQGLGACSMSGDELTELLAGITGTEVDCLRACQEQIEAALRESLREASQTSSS
Description: Cyclin-dependent kinase activity was measured by quantifying the enzyme-catalyzed, time-dependent incorporation of radioactive phosphate from [^32P]ATP or [^33P]ATP into a protein substrate. Unless noted otherwise, assays were performed in 96-well plates in a total volume of 50 μL, in the presence of 10 mM HEPES (N-[2-hydroxyethyl]piperazine-N′-[2-ethanesulfonic acid]) (pH 7.4), 10 mM MgCl2, 25 μM adenosine triphosphate (ATP), 1 mg/mL ovalbumin, 5 μg/mL leupeptin, 1 mM dithiothreitol, 10 mM β-glycerophosphate, 0.1 mM sodium vanadate, 1 mM sodium fluoride, 2.5 mM ethylene glycol-bis(β-aminoethyl ether)-N,N,N′N′-tetraacetic acid (EGTA), 2% (v/v) dimethylsulfoxide, and 0.03-0.4 μCi [^32/33P]ATP per reaction. Reactions were initiated with enzyme, incubated at 30° C., and terminated after 20 minutes by the addition of ethylenediaminetetraacetic acid (EDTA) to 250 mM. The phosphorylated substrate was then captured on a nitrocellulose or phosphocellulose membrane using a 96-well filtration manifold, and unincorporated radioactivity was removed by repeated washing with 0.85% phosphoric acid. Radioactivity was quantified by exposing the dried membranes to a phosphorimager.
Apparent Ki values were measured by assaying enzyme activity in the presence of different inhibitor compound concentrations and subtracting the background radioactivity measured in the absence of enzyme. The kinetic parameters (kcat, Km for ATP) were measured for each enzyme under the usual assay conditions by determining the dependence of initial rates on ATP concentration. Inhibition data were fit to an equation for competitive inhibition using Kaleidagraph (Synergy Software), or were fit to an equation for competitive tight-binding inhibition using the software KineTic (BioKin, Ltd.).
A complex of human CDK4 and cyclin D3, or a complex of cyclin D1 and a fusion protein of human CDK4 and gluathione-S-transferase (GST-CDK4), or a complex of human CDK4 and genetically truncated (1-264) cyclin D3, was purified using traditional biochemical chromatographic techniques from insect cells that had been co-infected with the corresponding baculovirus expression vectors (see e.g., Meijer and Kim, “Chemical Inhibitors of Cyclin-Dependent Kinases,” Methods in Enzymol,. vol. 283 (1997), pp. 113-128.). The enzyme complex (5 or 50 nM) was assayed with 0.3-0.5 μg of purified recombinant retinoblastoma protein fragment (Rb) as a substrate. The engineered Rb fragment (residues 386-928 of the native retinoblastoma protein; 62.3 kDa) contains the majority of the phosphorylation sites found in the native 106-kDa protein, as well as a tag of six histidine residues for ease of purification. Phosphorylated Rb substrate was captured by microfiltration on a nitrocellulose membrane and quantified using a phosphorimager as described above. For measurement of tight-binding inhibitors, the enzyme complex concentration was lowered to 5 nM, and the assay duration was extended to 60 minutes, during which the time-dependence of product formation was linear.

[3] = molecular target: T3, complex of human CDK4 and cyclin D3 (Homo sapiens, UniProt P11802); assay: Inhibition of CDK4/cyclin D retinoblastoma kinase activity (D-type cyclin is D3); format: biochemical; settings: superscript a: D-type cyclin is D3; apparent Ki; read-out: Ki CDK 4/D
T3 construct: made in house; host or cells: insect cells, co-infected with baculovirus
T3 sequence (P11802 whole entry): as the sequence (P11802 whole entry, the tested form may be a part) above
T3 sequence (P30281 whole entry partner): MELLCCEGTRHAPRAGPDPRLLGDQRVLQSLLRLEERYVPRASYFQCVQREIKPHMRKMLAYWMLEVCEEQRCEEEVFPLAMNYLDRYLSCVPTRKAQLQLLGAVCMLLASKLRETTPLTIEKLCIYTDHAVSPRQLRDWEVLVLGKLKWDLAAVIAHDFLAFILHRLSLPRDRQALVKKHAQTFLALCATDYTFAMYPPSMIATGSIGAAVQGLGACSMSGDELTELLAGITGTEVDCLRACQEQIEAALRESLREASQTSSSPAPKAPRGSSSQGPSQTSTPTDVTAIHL
Outline: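 Apparent Ki derived by fitting background-corrected activity to competitive (or, for tight binders, competitive tight-binding) equations with measured ATP Km. Rb phosphorylation by radiolabelled ATP was measured at 30°C, 20 min standard or 60 min at 5 nM complex for tight binders, via nitrocellulose capture and phosphorimager.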

CDK2/cyclin A = molecular target: T4, CDK2/cyclin A (Homo sapiens, UniProt P24941); assay: Inhibition of CDK2/cyclin A retinoblastoma kinase activity; format: biochemical; settings: read-out: Ki CDK 2/A
T4 construct: made in house; host or cells: CDK2: insect cells (baculovirus); cyclin A: E. coli, then limited proteolysis
Outline: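 Baculovirus-expressed CDK2 with excess proteolyzed cyclin A (or purified complex), 150 nM or 5 nM, phosphorylating an Rb fragment with 25 μM [32/33P]ATP, pH 7.4, 30° C, 20 min. Filter-captured radioactivity by phosphorimager; apparent Ki from fits to competitive or tight-binding competitive inhibition using measured ATP Km.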

HCT116 = assay: Inhibition of cell growth, MTT assay, HCT116; format: cell-based, human; settings: Homo sapiens, HCT-116
Outline: as §1

T1 sequence (P06493 whole entry): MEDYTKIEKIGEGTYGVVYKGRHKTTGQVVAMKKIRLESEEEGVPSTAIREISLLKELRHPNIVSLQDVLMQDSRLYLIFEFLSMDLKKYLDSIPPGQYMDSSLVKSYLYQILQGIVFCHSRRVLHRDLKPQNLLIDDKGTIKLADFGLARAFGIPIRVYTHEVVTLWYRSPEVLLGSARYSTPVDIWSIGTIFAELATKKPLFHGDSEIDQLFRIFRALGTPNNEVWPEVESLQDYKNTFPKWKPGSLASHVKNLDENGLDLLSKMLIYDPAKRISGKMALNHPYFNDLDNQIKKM
T1 sequence (P14635 whole entry partner): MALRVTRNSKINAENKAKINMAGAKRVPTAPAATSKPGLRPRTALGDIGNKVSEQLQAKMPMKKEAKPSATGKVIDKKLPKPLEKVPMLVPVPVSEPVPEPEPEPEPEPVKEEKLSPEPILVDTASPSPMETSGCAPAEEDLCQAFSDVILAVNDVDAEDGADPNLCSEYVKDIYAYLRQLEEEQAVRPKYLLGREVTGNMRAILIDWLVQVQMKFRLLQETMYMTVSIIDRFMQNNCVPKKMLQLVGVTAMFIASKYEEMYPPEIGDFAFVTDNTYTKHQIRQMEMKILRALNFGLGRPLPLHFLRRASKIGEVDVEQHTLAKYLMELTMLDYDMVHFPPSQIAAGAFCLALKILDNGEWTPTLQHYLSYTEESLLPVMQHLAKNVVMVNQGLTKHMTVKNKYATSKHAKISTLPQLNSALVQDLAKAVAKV

Ki [1]	IC50 (U2-OS)	IC90 (U2-OS)	Ki [2]	Ki [3]	Ki (CDK2/cyclin A)	IC50 (HCT116)	IC90 (HCT116)	Compound	IC50 (Saos-2)	IC90 (Saos-2)
50 nM	2700 nM	5000 nM	55 nM	57 nM	18 nM	–	–	Nc1nc(Nc2ccc(S(N)(=O)=O)cc2)sc1C(=O)c1c(F)cc(F)cc1F [C(115), 4-[4-Amino-5-(2,4,6-trifluoro-benzoyl)-thiazol-2-yl-amino]-benzenesulfonamide]	800 nM	2200 nM
–	–	–	64 nM	–	270 nM	–	–	CN(CCC#N)c1ccc(Nc2nc(N)c(C(=O)c3c(F)cccc3F)s2)cc1 [C(129), 3-({4-[4-Amino-5-(2,6-difluorobenzoyl)-thiazol-2-yl-amino]-phenyl}-methylamino)-propionitrile]	–	–
–	6000 nM	11000 nM	10.6 nM	–	953 nM	2500 nM	5300 nM	Nc1nc(Nc2ccc(N3CCN(CC4CC4)CC3)cc2)sc1C(=O)c1c(F)cccc1F [C(121), {4-Amino-2-[4-(4-cyclopropylmethyl-piperazin-1-yl)-phenylamino]-thiazol-5-yl}-(2,6-difluoro-phenyl)-methanone]	5100 nM	12000 nM
511 nM	510 nM	1300 nM	8.1 nM	–	548 nM	260 nM	600 nM	CC1(C)CN(c2ccc(Nc3nc(N)c(C(=O)c4c(F)cccc4F)s3)cc2)CCN1 [J(6), {4-Amino-2-[4-(3,3-dimethyl-piperazin-1-yl)-phenylamino]-thiazol-5-yl}-(2,6-difluoro-phenyl)-methanone]	470 nM	770 nM
–	–	–	24 nM	–	390 nM	600 nM	1400 nM	CN(C)CCCN(C)c1ccc(Nc2nc(N)c(C(=O)c3c(F)cccc3F)s2)cc1 [C(126), (4-Amino-2-{4-[(3-dimethylamino-propyl)-methyl-amino]-phenylamino}-thiazol-5-yl)-(2,6-difluoro-phenyl)-methanone]	–	–
650 nM	1200 nM	2300 nM	5.4 nM	–	602 nM	620 nM	1800 nM	C[C@H]1CN(c2ccc(Nc3nc(N)c(C(=O)c4c(F)cccc4F)s3)cc2)CCN1C [C(125), {4-Amino-2-[4-(3S,4-dimethyl-piperazin-1-yl)-phenylamino]-thiazol-5-yl}-(2,6-difluoro-phenyl)-methanone]	900 nM	1500 nM
2000 nM	2900 nM	5200 nM	19 nM	15 nM	572 nM	900 nM	2800 nM	Nc1nc(Nc2ccc(N3CCNCC3)cc2)sc1C(=O)c1c(F)cc(F)cc1F [J(3), [4-Amino-2-(4-piperazin-1-yl-phenylamino)-thiazol-5-yl]-(2,4,6-trifluoro-phenyl)-methanone]	2200 nM	4900 nM
–	–	–	46 nM	–	290 nM	> 25000 nM	–	Nc1nc(Nc2ccc(N3CCC(C(=O)O)CC3)cc2)sc1C(=O)c1c(F)cccc1F [M, 1-{4-[4-Amino-5-(2,6-difluoro-benzoyl)-thiazol-2-ylamino]-phenyl}-piperidine-4-carboxylic Acid]	–	–
–	1500 nM	4700 nM	35 nM	–	165 nM	1700 nM	4800 nM	Nc1nc(Nc2ccc(-c3ccncc3)cc2)sc1C(=O)c1c(F)cccc1F [C(122), [4-Amino-2-(4-pyridin-4-yl-phenylamino)-thiazol-5-yl]-(2,6-difluoro-phenyl)-methanone]	3700 nM	10000 nM
–	3500 nM	6000 nM	43 nM	–	364 nM	3500 nM	6200 nM	Nc1nc(Nc2ccc(N3CCN(c4ccccn4)CC3)cc2)sc1C(=O)c1c(F)cccc1F [K, {4-Amino-2-[4-(4-pyridin-2-yl-piperazin-1-yl)-phenylamino]-thiazol-5-yl}-(2,6-difluoro-phenyl)-methanone]	6000 nM	13000 nM
–	–	–	30 nM	–	440 nM	–	–	CN1CCCN(c2ccc(Nc3nc(N)c(C(=O)c4c(F)cccc4F)s3)cc2)CC1 [C(128), {4-Amino-2-[4-(1-methyl-[1,4]-diazepan-4-yl)-phenylamino]-thiazol-5-yl}-(2,6-difluoro-phenyl)-methanone]	–	–
417 nM	900 nM	1700 nM	10 nM	–	423 nM	1800 nM	2900 nM	Cc1ccsc1C(=O)c1sc(Nc2ccc(N(C)CCN(C)C)cc2)nc1N [C(117), (4-Amino-2-{4-[(2-dimethylamino-ethyl)-methyl-amino]-phenylamino}-thiazol-5-yl)-(3-methyl-thiophen-2-yl)-methanone]	890 nM	1500 nM
680 nM	1300 nM	2500 nM	17 nM	–	611 nM	540 nM	1600 nM	C[C@@H]1CN(c2ccc(Nc3nc(N)c(C(=O)c4c(F)cccc4F)s3)cc2)CCN1C [C(124), {4-Amino-2-[4-(3R,4-dimethyl-piperazin-1-yl)-phenylamino]-thiazol-5-yl}-(2,6-difluoro-phenyl)-methanone]	980 nM	1600 nM
193 nM	–	–	22 nM	–	–	> 12500 nM	–	NC(=O)C1CCN(c2ccc(Nc3nc(N)c(C(=O)c4c(F)cccc4F)s3)cc2)CC1 [L, {4-Amino-2-[4-(4-carboxamido-piperidin-1-yl)-phenylamino]-thiazol-5-yl}-(2,6-difluoro-phenyl)-methanone]	–	–
–	–	–	26 nM	–	215 nM	–	–	Nc1nc(Nc2ccc(N3CCN(c4ccncc4)CC3)cc2)sc1C(=O)c1c(F)cccc1F [C(127)]	–	–
